Among the data in patent US20220153734A1, “Pyrazolopyridine Compounds For IRE1 Inhibition” (Optikira, LLC, priority 2019, published 2022) are IC50 values, retold here.

Each structure is given as a SMILES string.

Experiment [1] relates to ARPE-19 cells stably expressing XBP1 (a.a. 1-376). In words: Cellular XBP1 splicing assay (NanoLuc luciferase, thapsigargin). The class given is cell-based. The following applies: thapsigargin 150 nM. The method in brief:
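ARPE-19 cells carrying an XBP1(1-376)-NanoLuc splicing reporter were pretreated with compound (10-point ½-log series, 0.117% DMSO) for 30 min, then stressed with 150 nM thapsigargin for 4 h at 37° C. Luminescence was read, and IC50 values came from sigmoidal fits of percent inhibition of control.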

Experiment [2] concerns the target T1, IRE1α (Homo sapiens, UniProt O75460).
T1 construct: purchased Signal Chem E31-11G
The experiment is described as follows: Biochemical assay: inhibition of RNase activity of IRE1α. The following applies: enzyme 0.325 nM, substrate 100 nM, 20 minutes. The method in brief:
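Recombinant IRE1α (0.325 nM final) pre-incubated 30 min at room temperature with compounds (10-point ½-log series, duplicate, 4% DMSO final). Then 100 nM fluorophore/quencher-labelled RNA substrate added in 50 mM Tris, 0.5 mM MgCl2, 10 mM KCl, 2 mM DTT. Urea stop after 20 min; fluorescence read; IC50 from sigmoidal fit.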

Experiment [3] concerns the target T1, IRE1α. The experiment is described as follows: Biochemical assay to detect inhibition of kinase activity of IRE1α (ADP-Glo). Here is the method:
Biochemical Assays to Detect Inhibition of Kinase Activity of IRE1α
The kinase reactions were performed in 384 well white ProxiPlate-384 Plus plates (PERKIN Elmer 6008280) using 25 mM MOPS assay buffer with 1 mM dithiothreitol, 25 mM MgCl2, 12.5 mM β-glycerophosphate, 5 mM EGTA, and 50 μg/mL BSA. Test compounds were prepared on the day of assay and dispensed using D300 digital dispenser as a 10-point ½ log dilution series in duplicate, normalized to a final DMSO concentration of 3%. Test compounds were pre-incubated for 30 min at room temperature with 10 nM IRE1α kinase (E31-11G from Signal Chem) in 2.5 μL of assay buffer and the reaction started by addition of 2.5 μL of ATP in assay buffer, to give a final ATP concentration of 100 μM and 5 nM IRE1α kinase. After 4 hours incubation at room temperature the reactions were stopped and the kinase activity determined using the ADP-Glo™ reagent from Promega, according to the manufacturer's instructions. Luminescence was measured on a luminometer (EnVision, PerkinElmer) and IC50 values calculated by fitting a sigmoidal curve to percent inhibition of control versus Log10 of compound concentration.
Background: In ADP-Glo the light output rises with the ADP produced.

T1 sequence (O75460 468-977 limits assumed): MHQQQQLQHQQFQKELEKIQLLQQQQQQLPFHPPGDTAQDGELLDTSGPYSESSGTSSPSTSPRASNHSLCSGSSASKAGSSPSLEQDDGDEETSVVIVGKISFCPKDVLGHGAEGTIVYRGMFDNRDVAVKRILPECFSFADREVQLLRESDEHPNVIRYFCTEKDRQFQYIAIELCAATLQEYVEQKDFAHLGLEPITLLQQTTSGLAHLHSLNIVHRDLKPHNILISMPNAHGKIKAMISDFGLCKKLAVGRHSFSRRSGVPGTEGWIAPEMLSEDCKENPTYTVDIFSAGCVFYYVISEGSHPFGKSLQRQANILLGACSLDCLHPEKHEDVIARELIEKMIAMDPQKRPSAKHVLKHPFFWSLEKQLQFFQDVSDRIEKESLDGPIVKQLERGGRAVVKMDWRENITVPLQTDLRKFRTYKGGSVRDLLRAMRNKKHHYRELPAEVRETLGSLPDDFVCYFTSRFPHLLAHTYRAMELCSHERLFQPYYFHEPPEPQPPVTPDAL

Regarding `CC(C)n1nc(-c2ccc(NS(=O)(=O)c3ccccc3F)c(F)c2)c2c(N)ncc([C@H]3CC[C@H](NC4COC4)CC3)c21` [Compound A1, N-(4-(4-amino-1-isopropyl-7-((1r,4r)-4-(oxetan-3-ylamino)cyclohexyl)-1H-pyrazolo[4,3-c]pyridin-3-yl)-2-fluorophenyl)-2-fluorobenzenesulfonamide], the IC50 is 7.9 nM in experiment [1] (Homo sapiens, ARPE-19, 4 h); 5.7 nM at IRE1α [2]; 1.9 nM at IRE1α [3].
With `CCn1nc(-c2cc(F)c(NS(=O)(=O)c3ccccc3F)cc2F)c2c(N)ncc([C@H]3CC[C@H](NC4COC4)CC3)c21` [Compound A45, N-(4-(4-amino-1-ethyl-7-((1r,4r)-4-(oxetan-3-ylamino)cyclohexyl)-1H-pyrazolo[4,3-c]pyridin-3-yl)-2,5-difluorophenyl)-2-fluorobenzenesulfonamide], the IC50 in experiment [1] (Homo sapiens, ARPE-19, 4 h) amounted to 94 nM; on IRE1α [2], 16 nM; on IRE1α [3] it was 6.5 nM.
Consider `CC(C)n1nc(-c2ccc(NS(=O)(=O)Cc3ccccc3Cl)c(F)c2)c2c(N)ncc([C@H]3CC[C@H](N(C)C)CC3)c21` [Compound A51, N-(4-(4-amino-7-((1r,4r)-4-(dimethylamino)cyclohexyl)-1-isopropyl-1H-pyrazolo[4,3-c]pyridin-3-yl)-2-difluorophenyl)-1-(2-chlorophenyl)methanesulfonamide], for which the half-maximal inhibitory concentration (IC50) in experiment [1] (Homo sapiens, ARPE-19, 4 h) was 2 nM; on IRE1α [2] it was 0.5 nM; on IRE1α [3], 2.7 nM.
On to `CC(C)n1nc(-c2ccc(NS(=O)(=O)Cc3ccccc3F)c(F)c2)c2c(N)ncc(C3=CCC(NC4COC4)CC3)c21` (single isomer, unassigned) [Compound B2, N-(4-(4-amino-1-isopropyl-7-(4-(oxetan-3-ylamino)cyclohex-1-en-1-yl)-1H-pyrazolo[4,3-c]pyridin-3-yl)-2-fluorophenyl)-1-(2-fluorophenyl)methanesulfonamide], for which the IC50 stood at 6.5 nM in experiment [1] (4 hour), 0.8 nM against IRE1α [2] and 1.9 nM against IRE1α [3].
On the same counts, the results for `CCn1nc(-c2ccc(NS(=O)(=O)Cc3ccccc3F)c(F)c2)c2c(N)ncc(C3=CCC(NC4COC4)CC3)c21` (single isomer, unassigned) [Compound B26, N-(4-(4-amino-1-ethyl-7-(4-(oxetan-3-ylamino)cyclohex-1-en-1-yl)-1H-pyrazolo[4,3-c]pyridin-3-yl)-2-fluorophenyl)-1-(2-fluorophenyl)methanesulfonamide] are 22 nM, 2.7 nM and 4.1 nM.
On the same counts, the results for `CC(C)n1nc(-c2ccc(NS(=O)(=O)Cc3ccccc3Cl)c(F)c2)c2c(N)ncc(C3=CCC(NC4COC4)CC3)c21` (single isomer, unassigned) [Compound B12, N-(4-(4-amino-1-isopropyl-7-(4-(oxetan-3-ylamino)cyclohex-1-en-1-yl)-1H-pyrazolo[4,3-c]pyridin-3-yl)-2-fluorophenyl)-1-(2-chlorophenyl)methanesulfonamide] are 14 nM, 1.6 nM and 1.8 nM.
As to `CC(C)n1nc(-c2ccc(NS(=O)(=O)c3ccccc3F)c(F)c2)c2c(N)ncc([C@H]3CC[C@H](N(C)C4COC4)CC3)c21` [Compound A46], the IC50 in experiment [1] (Homo sapiens, ARPE-19, 4 h) is 8.4 nM; at IRE1α [2], 7.7 nM; on IRE1α [3], 3.6 nM.
For `CC(C)n1nc(-c2cc(F)c(NS(=O)(=O)c3ccccc3Cl)cc2F)c2c(N)ncc(C3=CCC(NC4COC4)CC3)c21` (single isomer, unassigned) [Compound B10, N-(4-(4-amino-1-isopropyl-7-(4-(oxetan-3-ylamino)cyc1ohex-1-en-1-yl)-1H-pyrazolo[4,3-c]pyridin-3-yl)-2,5-difluorophenyl)-2-chlorobenzenesulfonamide], the half-maximal inhibitory concentration (IC50) turned out to be 57 nM in experiment [1] (4 hour), 13 nM at IRE1α [2] and 7 nM against IRE1α [3].
For `CCn1nc(-c2ccc(NS(=O)(=O)Cc3ccccc3F)c(F)c2)c2c(N)ncc([C@H]3CC[C@H](NC4COC4)CC3)c21` [Compound A53, N-(4-(4-amino-1-ethyl-7-((1r,4r)-4-(oxetan-3-ylamino)cyclohexyl)-1H-pyrazolo[4,3-c]pyridin-3-yl)-2-fluorophenyl)-1-(2-fluorophenyl)methanesulfonamide], the IC50 amounted to 9.2 nM in experiment [1] (Homo sapiens, ARPE-19, 4 h); 1.5 nM at IRE1α [2]; 1.9 nM against IRE1α [3].
For `CCn1nc(-c2cc(F)c(NS(=O)(=O)Cc3ccccc3Cl)cc2F)c2c(N)ncc([C@H]3CC[C@H](NC4COC4)CC3)c21` [Compound A42, N-(4-(4-amino-1-ethyl-7-((1r,4r)-4-(oxetan-3-ylamino)cyclohexyl)-1H-pyrazolo[4,3-c]pyridin-3-yl)-2,5-difluorophenyl)-1-(2-chlorophenyl)methanesulfonamide], in that order: 19 nM, 3.2 nM and 3 nM.
With `CC(C)n1nc(-c2cc(F)c(NS(=O)(=O)Cc3ccccc3Cl)cc2F)c2c(N)ncc(C3=CCC(NC4COC4)CC3)c21` (single isomer, unassigned) [Compound B6, N-(4-(4-amino-1-isopropyl-7-(4-(oxetan-3-ylamino)cyclohex-1-en-1-yl)-1H-pyrazolo[4,3-c]pyridin-3-yl)-2,5-difluorophenyl)-1-(2-chlorophenyl)methanesulfonamide], the 50% inhibitory concentration (IC50) in experiment [1] (4 hour) was 47 nM; at IRE1α [2] it was 5.1 nM; against IRE1α [3], 5.2 nM.
Take `Nc1ncc([C@H]2CC[C@H](NC3COC3)CC2)c2c1c(-c1ccc(NS(=O)(=O)c3ccccc3F)c(F)c1)nn2C1CC1` [Compound A41, N-(4-(4-amino-1-cyclopropyl-7-((1r,4r)-4-(oxetan-3-ylamino)cyclohexyl)-1H-pyrazolo[4,3-c]pyridin-3-yl)-2-fluorophenyl)-2-fluorobenzenesulfonamide]: the IC50 is 16 nM in experiment [1] (Homo sapiens, ARPE-19, 4 h); 8 nM at IRE1α [2]; 4.3 nM at IRE1α [3].
Take `CCn1nc(-c2ccc(NS(=O)(=O)Cc3ccccc3Cl)c(F)c2)c2c(N)ncc(C3=CCC(NC4COC4)CC3)c21` (single isomer, unassigned) [Compound B28, N-(4-(4-amino-1-ethyl-7-(4-(oxetan-3-ylamino)cyclohex-1-en-1-yl)-1H-pyrazolo[4,3-c]pyridin-3-yl)-2-fluorophenyl)-1-(2-chlorophenyl)methanesulfonamide]: the IC50 in experiment [1] (4 hour) is 27 nM; against IRE1α [2] it was 2.4 nM; against IRE1α [3] it was 3.9 nM.
Consider `CC(C)n1nc(-c2cc(F)c(NS(=O)(=O)Cc3ccccc3F)cc2F)c2c(N)ncc([C@H]3CC[C@H](NC4COC4)CC3)c21` [Compound A48, N-(4-(4-amino-1-isopropyl-7-((1r,4r)-4-(oxetan-3-ylamino)cyclohexyl)-1H-pyrazolo[4,3-c]pyridin-3-yl)-2,5-difluorophenyl)-1-(2-fluorophenyl)methanesulfonamide], for which the 50% inhibitory concentration (IC50) turned out to be 6.4 nM in experiment [1] (Homo sapiens, ARPE-19, 4 h); 1.9 nM on IRE1α [2]; 1.6 nM on IRE1α [3].
For `CCn1nc(-c2cc(F)c(NS(=O)(=O)c3ccccc3Cl)cc2F)c2c(N)ncc([C@H]3CC[C@H](NC4COC4)CC3)c21` [Compound A44, N-(4-(4-amino-1-ethyl-7-((1r,4r)-4-(oxetan-3-ylamino)cyclohexyl)-1H-pyrazolo[4,3-c]pyridin-3-yl)-2,5-difluorophenyl)-2-chlorobenzenesulfonamide], in that order: 31 nM, 8.2 nM and 2.8 nM.
In the case of `CC(C)n1nc(-c2ccc(NS(=O)(=O)c3ccccc3F)c(F)c2)c2c(N)ncc(C3=CCC(NC4COC4)CC3)c21` (single isomer, unassigned) [Compound B59, N-(4-(4-amino-1-isopropyl-7-(4-(oxetan-3-ylamino)cyclohex-1-en-1-yl)-1H-pyrazolo[4,3-c]pyridin-3-yl)-2-fluorophenyl)-2-fluorobenzenesulfonamide], the IC50 in experiment [1] (4 hour) was 36 nM; against IRE1α [3] it was 5.9 nM.
As to `CC(C)n1nc(-c2ccc(NS(=O)(=O)c3cc(Cl)ccc3F)c(F)c2)c2c(N)ncc(C3=CCC(NC4COC4)CC3)c21` (single isomer, unassigned) [Compound B15, N-(4-(4-amino-1-isopropyl-7-(4-(oxetan-3-ylamino)cyclohex-1-en-1-yl)-1H-pyrazolo[4,3-c]pyridin-3-yl)-2-fluorophenyl)-5-chloro-2-fluorobenzenesulfonamide], the results for the IC50 (in experiment [1] (4 hour); at IRE1α [2]) were 24 nM and 1.4 nM, respectively.
On to `Nc1ncc(C2=CCC(NC3COC3)CC2)c2c1c(-c1ccc(NS(=O)(=O)c3ccccc3Cl)c(F)c1)nn2C1CC1` (single isomer, unassigned) [Compound B18, N-(4-(4-amino-1-cyclopropyl-7-(4-(oxetan-3-ylamino)cyclohex-1-en-1-yl)-1H-pyrazolo[4,3-c]pyridin-3-yl)-2-fluorophenyl)-2-chlorobenzenesulfonamide], for which the half-inhibitory concentration (IC50) stood at 82 nM in experiment [1] (4 hour) and 9.9 nM on IRE1α [2].

As usually defined, the IC50 is the midpoint of a concentration-inhibition curve. Read a low IC50 as inhibition by little substance.
